Assay results reported in US20190330197A1, “SUBSTITUTED NAPHTHALENE DIIMIDES AND THEIR USE” (UCL Business PLC, priority 2015, published 2019).

Tests used:
[1] = tested on: human telomeric (F21T) G-quadruplex DNA; test: FRET quadruplex stabilisation assay, F21T; type: binding; conditions: compound at 1 μM, 60 mM potassium cacodylate buffer pH 7.4
From the text: (§1) The ability of the naphthalene diimide compounds to stabilize quadruplex DNA sequences was investigated using a fluorescence resonance energy transfer (FRET) assay modified to be used as a high-throughput screen in a 96-well format. Several quadruplex sequences were studied (including the human telomeric G-quadruplex DNA sequence 5′-FAM-d(GGG[TTAGGG]3)-TAMRA-3′ and the duplex sequence 5′-FAM-d[…]-HEG-[…]-TAMRA-3′ (HEG linker: [(—CH2—CH2—O—)6.
(§2) The labelled oligonucleotides have attached to them the donor fluorophore FAM: 6-carboxyfluorescein and the acceptor fluorophore TAMRA: 6-carboxytetramethylrhodamine. The FRET probe sequences were diluted from stock to the correct concentration (400 nM) in a 60 mM potassium cacodylate buffer (pH 7.4) and then annealed by heating to 85° C. for 10 min, followed by cooling to room temperature in the heating block. The compound was stored as a 10 mM stock solution in DMSO; final solutions (at 2× concentration) were prepared using 10 mM HCl in the initial 1:10 dilution, after which 60 mM potassium cacodylate buffer (pH 7.4) was used in all subsequent steps. The maximum HCl concentration in the reaction volume (at a ligand concentration of 20 μM) is thus 200 μM, well within the range of the buffer used. Relevant controls were also performed to check for interference with the assay. 96-Well plates (MJ Research, Waltham, Mass.) were prepared by aliquoting 50 μl of the annealed DNA into each well, followed by 50 μl of the compound solutions. Measurements were made on a DNA Engine Opticon (MJ Research) with excitation at 450-495 nm and detection at 515-545 nm. Fluorescence readings were taken at intervals of 0.5° C. in the range 30-100° C., with a constant temperature being maintained for 30 s prior to each reading to ensure a stable value. Final analysis of the data was carried out using a script written in the program Origin 7.0 (OriginLab Corp., Northampton, Mass.). The advanced curve-fitting function in Origin 7.0 was used for calculation of ΔTm values. All determinations were performed in triplicate or better. Esds in ΔTm are ±0.1° C.

[2] = tested on: Mia-PaCa2 (pancreatic cancer) cells; test: SRB growth inhibition, MiaPaCa2; type: cell-based, human; conditions: 96 hr, SRB assay; read-out: short-term 96 hr IC50 MiaPaCa2
Method: (§3) Human cancer cell lines and the somatic human cell line WI-38 (lung fibroblast) were purchased from the American Type Culture Collection. Cell lines were maintained in appropriate medium supplemented with 10% foetal bovine serum (Invitrogen, UK), 2 mM L-glutamine (Invitrogen, Netherlands), and other components as specified by the suppliers. Cell lines were maintained at 37° C., 5% CO2 and routinely passaged. Drugs were dissolved in DMSO and filtered through 0.22 μm pore-size filter units before addition to cell line appropriate media. Cellular growth inhibition was measured using the sulforhodamine B (SRB) assay in 96 well plates. Fifty percent inhibitory concentrations (IC50) were determined by taking the mean absorbance at 540 nm for each drug concentration expressed as a percentage of the absorbance of untreated control wells.

[3] = tested on: Tloop (representing duplex DNA); test: FRET assay, Tloop duplex DNA; type: binding; conditions: compound at 1 μM, 60 mM potassium cacodylate buffer pH 7.4
From the text: as §1, §2

[4] = tested on: Hsp90B sequence from the HSP90 promoter; test: FRET quadruplex stabilisation assay, Hsp90B; type: binding; conditions: compound at 1 μM, 60 mM potassium cacodylate buffer pH 7.4
From the text: as §1, §2

[5] = tested on: WI38 (lung fibroblast) cells; test: SRB growth inhibition, WI38; type: cell-based, human; conditions: 96 hr, SRB assay; read-out: short-term 96 hr IC50 WI38
Method: as §3

[6] = tested on: Kras32 sequence from the promoter region of the kras gene; test: FRET quadruplex stabilisation assay, Kras32; type: binding; conditions: compound at 1 μM, 60 mM potassium cacodylate buffer pH 7.4
From the text: as §1, §2

[7] = tested on: Hsp90A sequence from the HSP90 promoter; test: FRET quadruplex stabilisation assay, Hsp90A; type: binding; conditions: compound at 1 μM, 60 mM potassium cacodylate buffer pH 7.4
From the text: as §1, §2

[8] = tested on: MIA-PaCa2 cells; test: RNA-seq gene expression changes in treated MIA-PaCa2 cells; type: cell-based, human
Method: Cell lines were purchased from American Type Culture Collection (ATCC) and stored under liquid nitrogen. Cells were maintained in monolayer culture T75 (75 cm2 flasks) in humidified 5% CO2 atmosphere at 37° C. Cells were maintained in appropriate medium according to (ATCC) with necessary supplements including L-glutamine (Thermo Fisher Scientific Cat. No. 25030024), penicillin-streptomycin solution Hybrid-Max (Sigma Cat. No. P7539) and fetal bovine serum (FBS, Thermo Fisher Scientific Cat. No. 10270106). Cells were passaged at 80-90% confluence.
MIA-PaCa2 cells were seeded 48 hours prior to incubation, in MatTek 35 mm glass bottom dishes. Three incubation times for the compound 4c were examined: 0, 6 and 24 hrs. For RNA extraction cells (a maximum of 1×10^7 cells) were harvested by trypsinization following rinsing the cells twice in 1×PBS (without calcium chloride and magnesium chloride, purchased from Sigma Cat. No. D1408). After neutralising the medium with an equal volume of medium to trypsin cells were transferred to a sterile centrifuge tube for centrifugation for 4 minutes at 400 rpm at room temperate in order to pellet the cells. After removing the medium and trypsin following centrifugation RNA was extracted from the pellet of cells using the RNeasy Mini Kit by QIAGEN (Cat. no. 74104). RNA quality was checked by use of the NanoDrop 2000 Spectrophotometer, and a minimum quantity of ca 500 ng of RNA at >25 ng/μl concentration per replicate was verified.
RNA-Seq sequencing studies were performed by the UCL Genomics Facility using an Illumina NextSeq 500 instrument, and data obtained on RNA expression levels of all individual genes in the genomes of the cells analysed, relative to the control cells at 0 hr exposure. Four replicates were used for each time-point, thus a total of 12 individual genomes were analysed and statistics obtained for each time-point.
Data has been taken from RNA-seq data from treated MIA-PaCa2 cells, showing log-fold expression changes for genes selected from those showing the most significant down-regulation of expression as measured by RNA levels.

[9] = tested on: Panc1 (pancreatic cancer) cells; test: SRB growth inhibition, Panc1; type: cell-based, human; conditions: 96 hr, SRB assay; read-out: short-term 96 hr IC50 Panc1
Method: as §3

SMILES: O=C1c2ccc3c4c(c(NCCN5CCCC5)cc(c24)C(=O)N1CCCN1CCOCC1)C(=O)N(CCCN1CCOCC1)C3=O [Compound 4c, 2,7-bis(3-morpholinopropyl)-4-((2-(pyrrolidin-1-yl)ethyl)amino)benzo[Imn][3,8]phenanthroline-1,3,6,8(2H,7H)-tetraone]
- ΔTm F21T [1]: 11.8 °C
- IC50 [2]: 12 nM
- ΔTm Tloop [3]: 0.6 °C
- ΔTm Hsp90B [4]: 12.7 °C
- IC50 [5]: 1190 nM
- ΔTm Kras32 [6]: 9.6 °C
- ΔTm Hsp90A [7]: 15.7 °C
- AVIL log-fold change relative to t = 0 hrs ([8]; 4c at 6 hrs): 3.0
- CBFA2T3 log-fold change relative to t = 0 hrs ([8]; 4c at 6 hrs): −2.8
- FLG log-fold change relative to t = 0 hrs ([8]; 4c at 6 hrs): 4.0
- ITGA1 log-fold change relative to t = 0 hrs ([8]; 4c at 6 hrs): 4.5
- ITGAM log-fold change relative to t = 0 hrs ([8]; 4c at 6 hrs): 7.0
- PRDM16 log-fold change relative to t = 0 hrs ([8]; 4c at 6 hrs): −2.8
- SHANK2 log-fold change relative to t = 0 hrs ([8]; 4c at 6 hrs): −1.9
- ST14 log-fold change relative to t = 0 hrs ([8]; 4c at 6 hrs): 5.6
- TP73 log-fold change relative to t = 0 hrs ([8]; 4c at 6 hrs): −2.4
- TREX1 log-fold change relative to t = 0 hrs ([8]; 4c at 6 hrs): −8.3
- ZNF469 log-fold change relative to t = 0 hrs ([8]; 4c at 6 hrs): −3.4
- AVIL log-fold change relative to t = 0 hrs ([8]; 4c at 24 hrs): 0.5
- CBFA2T3 log-fold change relative to t = 0 hrs ([8]; 4c at 24 hrs): −2.8
- FLG log-fold change relative to t = 0 hrs ([8]; 4c at 24 hrs): 0.7
- ITGA1 log-fold change relative to t = 0 hrs ([8]; 4c at 24 hrs): 0.4
- ITGAM log-fold change relative to t = 0 hrs ([8]; 4c at 24 hrs): 2.6
- PRDM16 log-fold change relative to t = 0 hrs ([8]; 4c at 24 hrs): −3.5
- SHANK2 log-fold change relative to t = 0 hrs ([8]; 4c at 24 hrs): −2.0
- ST14 log-fold change relative to t = 0 hrs ([8]; 4c at 24 hrs): 2.5
- TP73 log-fold change relative to t = 0 hrs ([8]; 4c at 24 hrs): −1.2
- TREX1 log-fold change relative to t = 0 hrs ([8]; 4c at 24 hrs): −2.5
- ZNF469 log-fold change relative to t = 0 hrs ([8]; 4c at 24 hrs): −3.2
- extent of gene expression changes ([8]; treated MIA-PaCa2 cells): changes in gene expression in a comparatively small number of genes
- IC50 [9]: 22 nM
